Measurements taken from patent US9221814B2, “Heterocyclic guanidine F1F0-atpase inhibitors and therapeutic uses thereof” (Lycera Corporation, priority 2012, dated 2015).
Where two headings read alike, the source gives them in different places.

Experiments:
F1F0-ATPase = molecular target: T1, F1F0-ATPase (Bos taurus, UniProt P13621); test: Inhibition of F1F0-ATPase activity in synthesizing ATP (ATP synthesis inhibition); assay type: biochemical; conditions: detection limit IC50=16 μM, read-out: ATP Syn IC50
T1 construct: from tissue
Description: (§1) Exemplary compounds described in above Examples were tested for activity against F1F0-ATPase by measuring the ability of the compounds to inhibit ATP synthesis. In addition, the compounds were assessed for cytotoxicity in Ramos cells. Inhibition of F1F0-ATPase activity in synthesizing ATP and cytotoxicity in Ramos cells were measured according to the procedures described in K. M. Johnson et al. Chemistry & Biology 2005, 12, 485-496.

Ramos cells = test: Cytotoxicity in Ramos cells; assay type: cell-based; conditions: detection limit EC50=16 μM, read-out: Ramos Cell EC50
Description: as §1

## Cn1cc(C(=O)/N=C(/Nc2cc(-c3ccc(O)cc3F)n[nH]2)Nc2ccccc2F)c(C(F)(F)F)n1 [Compound 1, N-(((3-(2-Fluoro-4-hydroxyphenyl)-1H-pyrazol-5-yl)amino)((2-fluorophenyl)amino)methylene)-1-methyl-3-(trifluoromethyl)-1H-pyrazole-4-carboxamide]
F1F0-ATPase
  IC50: 5 to 16 µM
Ramos cells; Homo sapiens
  EC50: < 5 µM

## CCOC(=O)NC1CCCC(N/C(=N\C(=O)c2cc(C)oc2C(F)(F)F)Nc2cccc(F)c2)C1 (stereo not drawn) [Compound 2, Ethyl (3-(3-(3-fluorophenyl)-2-(5-methyl-2-(trifluoromethyl)furan-3-carbonyl)guanidino)cyclohexyl)carbamate]
F1F0-ATPase
  IC50: > 16 µM
Ramos cells; Homo sapiens
  EC50: 5 to 16 µM

## CC(C)CN/C(=N/C(=O)c1cn(C)nc1C(F)(F)F)Nc1cc(-c2ccc(O)c(F)c2)n[nH]1 [Compound 3, N-(((3-(3-Fluoro-4-hydroxyphenyl)-1H-pyrazol-5-yl)amino)(isobutylamino)methylene)-1-methyl-3-(trifluoromethyl)-1H-pyrazole-4-carboxamide]
F1F0-ATPase
  IC50: 5 to 16 µM
Ramos cells; Homo sapiens
  EC50: > 16 µM

## CC(C)CN/C(=N/C(=O)c1cn(C)nc1C(F)(F)F)Nc1cc(-c2ccc(O)cc2F)n[nH]1 [Compound 4, N-(((3-(2-Fluoro-4-hydroxyphenyl)-1H-pyrazol-5-yl)amino)(isobutylamino)methylene)-1-methyl-3-(trifluoromethyl)-1H-pyrazole-4-carboxamide]
F1F0-ATPase
  IC50: > 16 µM
Ramos cells; Homo sapiens
  EC50: > 16 µM

## Cn1cc(C(=O)/N=C(\Nc2cc(-c3ccc(O)c(F)c3)n[nH]2)Nc2ccc(F)c(O)c2F)c(C(F)(F)F)n1 [Compound 5, N-(((2,4-Difluoro-3-hydroxyphenyl)amino)((3-(3-fluoro-4-hydroxyphenyl)-1H-pyrazol-5-yl)amino)methylene)-1-methyl-3-(trifluoromethyl)-1H-pyrazole-4-carboxamide]
F1F0-ATPase
  IC50: 5 to 16 µM
Ramos cells; Homo sapiens
  EC50: 5 to 16 µM

## CCOCCCN/C(=N\C(=O)c1cnoc1C)Nc1cc(-c2cc(F)cc(F)c2)n[nH]1 [Compound A-1]
F1F0-ATPase
  IC50: > 16 µM
Ramos cells
  EC50: > 16 µM

## Cc1nn(C)cc1C(=O)/N=C(\Nc1cc(F)cc(Cl)c1)Nc1cc(-c2ccc(O)cc2F)n[nH]1 [Compound A-2]
F1F0-ATPase
  IC50: 5 to 16 µM
Ramos cells
  EC50: > 16 µM

## Cn1cc(C(=O)/N=C(/Nc2cc(-c3ccc(O)cc3F)n[nH]2)Nc2ccccc2Cl)c(C(F)(F)F)n1 [Compound A-3]
F1F0-ATPase
  IC50: 5 to 16 µM
Ramos cells
  EC50: < 5 µM

## Cn1cc(C(=O)N=C(Nc2cc(-c3ccc(O)cc3F)n[nH]2)Nc2ccc(F)cc2F)c(C(F)(F)F)n1 [Compound A-4]
F1F0-ATPase
  IC50: 5 to 16 µM
Ramos cells; Homo sapiens
  EC50: < 5 µM

## Cn1cc(C(=O)/N=C(\Nc2cc(F)cc(Cl)c2)Nc2cc(-c3ccc(O)cc3F)n[nH]2)c(C(F)(F)F)n1 [Compound A-5]
F1F0-ATPase
  IC50: < 5 µM
Ramos cells
  EC50: < 5 µM

## CSc1ccccc1N/C(=N\C(=O)c1cn(C)nc1C(F)(F)F)Nc1cc(-c2ccc(O)cc2F)n[nH]1 [Compound A-6]
F1F0-ATPase
  IC50: 5 to 16 µM
Ramos cells
  EC50: < 5 µM

## CSc1cccc(N/C(=N\C(=O)c2cn(C)nc2C(F)(F)F)Nc2cc(-c3ccc(O)cc3F)n[nH]2)c1 [Compound A-7]
F1F0-ATPase
  IC50: 5 to 16 µM
Ramos cells
  EC50: < 5 µM

## CSc1ccc(N/C(=N\C(=O)c2cn(C)nc2C(F)(F)F)Nc2cc(-c3ccc(O)cc3F)n[nH]2)cc1 [Compound A-8]
F1F0-ATPase
  IC50: 5 to 16 µM
Ramos cells
  EC50: < 5 µM

## Cc1nc(C(=O)/N=C(/Nc2ccc(F)cc2)Nc2cccc(C(F)(F)F)c2)cs1 [Compound A-10]
Ramos cells; Homo sapiens
  EC50: > 16 µM

## Cc1nc(C(=O)/N=C(\Nc2cccc(C(F)(F)F)c2)Nc2ccc3[nH]ncc3c2)cs1 [Compound A-11]
Ramos cells; Homo sapiens
  EC50: > 16 µM

## Cc1nc(C(=O)/N=C(\Nc2cccc(C(F)(F)F)c2)Nc2ccc3[nH]c(=O)oc3c2)cs1 [Compound A-12]
Ramos cells; Homo sapiens
  EC50: > 16 µM

## Cc1nc(C(=O)/N=C(/Nc2ccc(N3CCC(O)CC3)cc2)Nc2cccc(C(F)(F)F)c2)cs1 [Compound A-13]
Ramos cells; Homo sapiens
  EC50: > 16 µM

## Cc1nc(C(=O)/N=C(/Nc2ccc(F)cc2)Nc2ccccc2C(C)(C)C)cs1 [Compound A-14]
Ramos cells; Homo sapiens
  EC50: > 16 µM

## Cc1nc(C(=O)/N=C(/Nc2ccc3[nH]ncc3c2)Nc2ccccc2C(C)(C)C)cs1 [Compound A-15]
Ramos cells; Homo sapiens
  EC50: 5 to 16 µM

## Cc1nc(C(=O)/N=C(/Nc2ccc3[nH]c(=O)oc3c2)Nc2ccccc2C(C)(C)C)cs1 [Compound A-16]
Ramos cells; Homo sapiens
  EC50: > 16 µM

## Cc1nc(C(=O)/N=C(/Nc2ccc(N3CCC(O)CC3)cc2)Nc2ccccc2C(C)(C)C)cs1 [Compound A-17]
Ramos cells; Homo sapiens
  EC50: > 16 µM

## Cc1nc(C(=O)/N=C(/Nc2ccc(F)cc2)Nc2ccc(Cl)cc2)cs1 [Compound A-18]
Ramos cells; Homo sapiens
  EC50: > 16 µM

## Cc1nc(C(=O)/N=C(\Nc2ccc(Cl)cc2)Nc2ccc3[nH]ncc3c2)cs1 [Compound A-19]
Ramos cells; Homo sapiens
  EC50: > 16 µM

## Cc1nc(C(=O)/N=C(\Nc2ccc(Cl)cc2)Nc2ccc3[nH]c(=O)oc3c2)cs1 [Compound A-20]
Ramos cells; Homo sapiens
  EC50: > 16 µM

## Cc1nc(C(=O)/N=C(\Nc2ccc(Cl)cc2)Nc2ccc(N3CCC(O)CC3)cc2)cs1 [Compound A-21]
Ramos cells; Homo sapiens
  EC50: > 16 µM

## Cc1nc(C(=O)/N=C(/Nc2ccc(F)cc2)Nc2cccc(Cl)c2)cs1 [Compound A-22]
Ramos cells; Homo sapiens
  EC50: > 16 µM

## Cc1nc(C(=O)/N=C(\Nc2cccc(Cl)c2)Nc2ccc3[nH]ncc3c2)cs1 [Compound A-23]
Ramos cells; Homo sapiens
  EC50: > 16 µM

## Cc1nc(C(=O)/N=C(\Nc2cccc(Cl)c2)Nc2ccc3[nH]c(=O)oc3c2)cs1 [Compound A-24]
Ramos cells; Homo sapiens
  EC50: > 16 µM

## Cn1cc(C(=O)/N=C(/Nc2cc(-c3cc(F)cc(F)c3)n[nH]2)NC(C)(C)C)c(C(F)(F)F)n1 [Compound A-25]
F1F0-ATPase
  IC50: < 5 µM
Ramos cells
  EC50: < 5 µM

## CC(C)CN/C(=N\C(=O)c1cn(C)nc1C(F)(F)F)Nc1cc(-c2cc(F)cc(F)c2)n[nH]1 [Compound A-26]
F1F0-ATPase
  IC50: < 5 µM
Ramos cells
  EC50: < 5 µM

## Cn1cc(C(=O)/N=C(/Nc2cc(-c3cc(F)cc(F)c3)n[nH]2)NC2CCCC2)c(C(F)(F)F)n1 [Compound A-27]
F1F0-ATPase
  IC50: < 5 µM
Ramos cells
  EC50: < 5 µM

## Cn1cc(C(=O)/N=C(/Nc2cc(-c3cc(F)cc(F)c3)n[nH]2)NC2CCC2)c(C(F)(F)F)n1 [Compound A-28]
F1F0-ATPase
  IC50: < 5 µM
Ramos cells
  EC50: < 5 µM

## CCOCCCN/C(=N\C(=O)c1cn(C)nc1C(F)(F)F)Nc1cc(-c2cc(F)cc(F)c2)n[nH]1 [Compound A-29]
F1F0-ATPase
  IC50: < 5 µM
Ramos cells
  EC50: < 5 µM

## CCOCCN/C(=N\C(=O)c1cn(C)nc1C(F)(F)F)Nc1cc(-c2cc(F)cc(F)c2)n[nH]1 [Compound A-30]
F1F0-ATPase
  IC50: < 5 µM
Ramos cells
  EC50: < 5 µM

## Cn1cc(C(=O)/N=C(\NCC(C)(C)C)Nc2cc(-c3cc(F)cc(F)c3)n[nH]2)c(C(F)(F)F)n1 [Compound A-31]
F1F0-ATPase
  IC50: < 5 µM
Ramos cells
  EC50: < 5 µM

## COC[C@H](C)N/C(=N\C(=O)c1cn(C)nc1C(F)(F)F)Nc1cc(-c2cc(F)cc(F)c2)n[nH]1 [Compound A-32]
F1F0-ATPase
  IC50: 5 to 16 µM
Ramos cells
  EC50: 5 to 16 µM

## CCC(C)N/C(=N\C(=O)c1cn(C)nc1C(F)(F)F)Nc1cc(-c2cc(F)cc(F)c2)n[nH]1 (stereo not drawn) [Compound A-33]
F1F0-ATPase
  IC50: < 5 µM
Ramos cells
  EC50: < 5 µM

## O=C(N=C(Nc1cc(F)cc(Cl)c1)Nc1cc(C(F)(F)F)n[nH]1)c1nccs1 [Compound A-34]
F1F0-ATPase
  IC50: < 5 µM
Ramos cells; Homo sapiens
  EC50: < 5 µM

## CC(C)(C)N/C(=N/C(=O)c1nccs1)Nc1cc(C(F)(F)F)n[nH]1 [Compound A-35]
F1F0-ATPase
  IC50: < 5 µM
Ramos cells
  EC50: 5 to 16 µM

## Cc1cc(C(=O)/N=C(/Nc2cc(F)cc(Cl)c2)Nc2cc(C(F)(F)F)n[nH]2)on1 [Compound A-36]
F1F0-ATPase
  IC50: < 5 µM
Ramos cells
  EC50: < 5 µM

## Cc1oncc1C(=O)/N=C(/NCc1ccc(F)cc1Cl)Nc1cc(-c2ccc(F)cc2)n[nH]1 [Compound A-37]
Ramos cells
  EC50: 5 to 16 µM

## CC(C)(C)N/C(=N/C(=O)c1ccno1)Nc1cc(-c2ccc(F)cc2)n[nH]1 [Compound A-38]
F1F0-ATPase
  IC50: 5 to 16 µM
Ramos cells
  EC50: 5 to 16 µM

## Cc1ccccc1CN/C(=N/C(=O)c1ccno1)Nc1cc(-c2ccc(F)cc2)n[nH]1 [Compound A-39]
F1F0-ATPase
  IC50: 5 to 16 µM

## Cc1cc(C(=O)/N=C(\Nc2cc(-c3ccc(F)cc3)n[nH]2)NC(C)(C)C)on1 [Compound A-40]
F1F0-ATPase
  IC50: 5 to 16 µM
Ramos cells
  EC50: > 16 µM

## Cc1cc(C(=O)N=C(Nc2cc(-c3ccc(F)cc3)[nH]n2)NC(C)(C)C)no1 [Compound A-41]
F1F0-ATPase
  IC50: 5 to 16 µM

## Cc1cc(C(=O)/N=C(/NCc2ccccc2C)Nc2cc(-c3ccc(F)cc3)n[nH]2)no1 [Compound A-42]
F1F0-ATPase
  IC50: < 5 µM
Ramos cells
  EC50: 5 to 16 µM

## Cn1nc(C(C)(C)C)cc1C(=O)/N=C(\Nc1cc(-c2ccc(F)cc2)n[nH]1)NC(C)(C)C [Compound A-43]
F1F0-ATPase
  IC50: < 5 µM

## Cc1ccccc1CN/C(=N/C(=O)c1cc(C(C)(C)C)nn1C)Nc1cc(-c2ccc(F)cc2)n[nH]1 [Compound A-44]
F1F0-ATPase
  IC50: < 5 µM
Ramos cells
  EC50: < 5 µM

## COc1cccc(CN/C(=N/C(=O)c2ccn(C)n2)Nc2cc(-c3ccc(F)cc3)n[nH]2)c1 [Compound A-45]
F1F0-ATPase
  IC50: 5 to 16 µM
Ramos cells
  EC50: 5 to 16 µM

## COc1cccc(CN/C(=N/C(=O)c2cc(C(C)(C)C)nn2C)Nc2cc(-c3ccc(F)cc3)n[nH]2)c1 [Compound A-46]
F1F0-ATPase
  IC50: < 5 µM
Ramos cells
  EC50: < 5 µM

## Cc1nnsc1C(=O)/N=C(\Nc1cc(-c2ccc(F)cc2)n[nH]1)NC(C)(C)C [Compound A-47]
F1F0-ATPase
  IC50: 5 to 16 µM
Ramos cells
  EC50: < 5 µM

## Cc1cc(C(=O)/N=C(\Nc2cc(-c3ccc(F)cc3)n[nH]2)NC(C)C)no1 [Compound A-48]
F1F0-ATPase
  IC50: > 16 µM
Ramos cells
  EC50: > 16 µM

## CC(C)N/C(=N/C(=O)c1cc(C(C)(C)C)nn1C)Nc1cc(-c2ccc(F)cc2)n[nH]1 [Compound A-49]
F1F0-ATPase
  IC50: < 5 µM
Ramos cells
  EC50: < 5 µM

## COC[C@H](C)N/C(=N/C(=O)c1cc(C(C)(C)C)nn1C)Nc1cc(-c2ccc(F)cc2)n[nH]1 [Compound A-50]
F1F0-ATPase
  IC50: < 5 µM
Ramos cells
  EC50: < 5 µM

## Cn1nc(C(C)(C)C)cc1C(=O)/N=C(\Nc1cc(-c2ccc(F)cc2)n[nH]1)NC1CCCC1 [Compound A-51]
F1F0-ATPase
  IC50: < 5 µM
Ramos cells
  EC50: < 5 µM

## COC[C@H](C)N/C(=N/C(=O)c1cc(C)on1)Nc1cc(-c2ccc(F)cc2)n[nH]1 [Compound A-52]
F1F0-ATPase
  IC50: > 16 µM
Ramos cells
  EC50: > 16 µM
